Measured values: US20180071317A1, “USE OF AGENTS THAT ALTER THE PERITUMORAL ENVIRONMENT FOR THE TREATMENT OF CANCER” (SERVICIO ANDALUZ DE SALUD, priority 2011, published 2018)

Columns and labels:
[1] = test system: fibroblasts (PHF) co-cultured with tumor cells of human pancreatic adenocarcinoma (CAPAN-1); experiment: Marker expression (IHC) in PHF co-cultured with CAPAN-1 tumor cells; assay type: cell-based; settings: co-culture with CAPAN-1; SP 1 μM + antagonist 1 μM; 48 h;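 further: cultures grown in fresh plasma from a healthy human donor, run in six replicates, value is percent of fibroblasts positive for each marker, compared with fibroblasts cultured alone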
Protocol: All cultures were maintained 48 hours, following which the same cells were included in paraffin blocks for subsequent analysis of the expression of different markers by immunohistochemistry (see Example 1). The primary antibodies used to perform immunohistochemical assays and their concentration are detailed in Example 2. All experiments were carried out sixfold. Analyzed markers in fibroblast cells (stromal cells) were: TGF-α, TGF-β1, TGF-β2, TGF-β3, SPARC, MMP-3, MMP-7, MMP-9, MMP-11, MMP-13 and MMP-14.

[2] = test system: fibroblasts (PHF) co-cultured with tumor cells, thyroid carcinoma; experiment: Marker expression (IHC) in PHF co-cultured with thyroid carcinoma tumor cells; assay type: cell-based, human; settings: co-culture with thyroid carcinoma cells; SP 1 μM + antagonist 1 μM; 48 h;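 further: grown in fresh plasma from a healthy human donor, read-out is percent of fibroblasts positive for each marker, compared with fibroblasts cultured alone, run in six replicates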
Protocol: (§1) All cultures were maintained 48 hours, following which the same cells were included in paraffin blocks for subsequent analysis of the expression of different markers by immunohistochemistry (see Example 1). […] All experiments were carried out sixfold. Analyzed markers in fibroblast cells (stromal cells) were: TGF-α, TGF-β1, TGF-β2, TGF-β3, SPARC, MMP-3, MMP-7, MMP-9, MMP-11, MMP-13 and MMP-14.

[3] = test system: fibroblasts (PHF) co-cultured with tumor cells, thyroid carcinoma (reference A-427); experiment: as above; assay type: cell-based, human; settings: co-culture with thyroid carcinoma cells; SP 1 μM + antagonist 1 μM; 48 h
Protocol: as §1

[4] = test system: fibroblasts (PHF) co-cultured with tumor cells in human prostate carcinoma (22Rv1); experiment: Marker expression (IHC) in PHF co-cultured with 22Rv1 tumor cells; assay type: cell-based; settings: co-culture with 22Rv1; SP 1 μM + antagonist 1 μM; 48 h;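 further: cultures grown on fresh plasma from a healthy donor, each experiment run sixfold, values give the percentage of fibroblasts positive for the given marker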
Protocol: as §1

mononuclear cells = experiment: Marker expression (immunohistochemistry) in mononuclear blood cells with SP alone or with NK1 antagonists; assay type: cell-based, human; settings: SP 1 μM + antagonist 1 μM; 48 h
Description: Briefly, heparinized blood from healthy donors was centrifuged so as to separate the various components thereof. Red blood cells remained at the bottom of the tube. Above them was a small white layer composed of the white blood cells and above, on top of the tube, the blood plasma. The layer of white cells was distributed in a culture plate of 24 wells by adding in each the same concentration of blood plasma from the same donor, supplemented with 1% antibiotic-antimycotic (Invitrogen). In each well, approximately 1000 cells (PHF) skin from the dermis were further added, obtained as previously described in Example 2. […] After 48 hours of incubation, cells were collected and embedded in paraffin for expression analysis by immunohistochemical techniques (as described in Example 1).
The expression of TGF molecular markers (anti-TGF 2, SAB4502956) and NF-kB (anti-NF-kB, SAB4501992) using specific antibodies against them were analyzed. All antibodies used were rabbit polyclonal antibodies obtained from Sigma Aldrich and were used at a concentration of 1/1000. All experiments were carried out sixfold.

[5] = test system: fibroblast cells in co-culture with cells isolated from primary human tumors; experiment: Marker expression (IHC) in fibroblasts co-cultured with primary human tumor cells (colon, pancreatic, lung carcinoma, glioma, multiple myeloma); assay type: cell-based
Protocol: To check that the interaction of the human primary tumor cells with stromal cells, [human fibroblasts,] stimulates the secretion of substances of importance for survival and tumor progression, co-cultures were performed using stromal cells with human fibroblast-tumor cells obtained directly from primary human tumors.
On this occasion, in order to identify, using immunohistochemical techniques, the secretion of substances of importance for the survival and progression of tumors, the following antibodies were used: TGF-α (SAB4502953), TGF-β1 (SAB4502954), TGF-β2 (SAB4502956), TGF-β3 (SAB4502957), SPARC (HPA002989), MMP-3 (HPA007875), MMP-7 (SAB4501894), MMP-9 (SAB4501896), MMP-11 (SAB4501898) MMP-13 (SAB4501900) and MMP-14 (SAB4501901) using specific antibodies against them. All antibodies used were rabbit polyclonal antibodies obtained from Sigma-Aldrich and were used at a concentration of 1/1000 to achieve these immunohistochemical studies. All experiments were carried out sixfold.

[6] = test system: fibroblasts (PHF) co-cultured with human fibrosarcoma tumor cells (HT-1080); experiment: Marker expression (IHC) in PHF co-cultured with HT-1080 tumor cells; assay type: cell-based; settings: co-culture with HT-1080; SP 1 μM + antagonist 1 μM; 48 h;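 further: cultures grown in fresh human plasma from a healthy donor, six replicates, value is percent of fibroblasts positive for the marker, compared with fibroblasts cultured without tumor cells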
Protocol: as §1

[7] = test system: fibroblasts (PHF) co-cultured with tumor cells of lung carcinoma (A-427); experiment: Marker expression (IHC) in PHF co-cultured with A-427 tumor cells; assay type: cell-based, human; settings: co-culture with A-427 lung carcinoma; SP 1 μM + antagonist 1 μM; 48 h;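 further: cultures grown in human blood plasma from a healthy donor, value is the percentage of fibroblasts positive for each marker, six replicates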
Protocol: as §1

[8] = Primary tumor cells (colon carcinoma) co-cultured + fibroblast + SP (1 μM) + NK1 antagonist 1 μM
[9] = co-culture with cells isolated from glioma, SP 1 μM + antagonist 1 μM
[10] = co-culture with cells isolated from lung cancer, SP 1 μM + antagonist 1 μM
[11] = co-culture with cells isolated from multiple myeloma, SP 1 μM + antagonist 1 μM
[12] = co-culture with cells isolated from pancreatic carcinoma, SP 1 μM + antagonist 1 μM

CC(=O)N1CCN([C@H]2CCN(C(=O)N(C)[C@H](C)c3cc(C(F)(F)F)cc(C(F)(F)F)c3)[C@@H](c3ccc(F)cc3C)C2)CC1 [Casopitant]
0%: PHF cells expressing MMP-3 [1] | PHF cells expressing MMP-7 [1] | PHF cells expressing MMP-9 [1] | PHF cells expressing MMP-11 [1] | PHF cells expressing MMP-13 [1] | PHF cells expressing MMP-14 [1] | PHF cells expressing SPARC [1] | PHF cells expressing TGF-α [1] | PHF cells expressing TGF-β1 [1] | PHF cells expressing TGF-β2 [1] | PHF cells expressing TGF-β3 [1] | PHF cells expressing MMP-11 [2] | PHF cells expressing MMP-3 [3] | PHF cells expressing MMP-7 [3] | PHF cells expressing MMP-9 [3] | PHF cells expressing MMP-13 [3] | PHF cells expressing MMP-14 [3] | PHF cells expressing SPARC [3] | PHF cells expressing TGF-α [3] | PHF cells expressing TGF-β1 [3] | PHF cells expressing TGF-β2 [3] | PHF cells expressing TGF-β3 [3] | PHF cells expressing MMP-3 [4] | PHF cells expressing MMP-7 [4] | PHF cells expressing MMP-9 [4] | PHF cells expressing MMP-11 [4] | PHF cells expressing MMP-13 [4] | PHF cells expressing MMP-14 [4] | PHF cells expressing SPARC [4] | PHF cells expressing TGF-α [4] | PHF cells expressing TGF-β1 [4] | PHF cells expressing TGF-β2 [4] | PHF cells expressing TGF-β3 [4] | mononuclear cells expressing NF-kB (mononuclear cells) | mononuclear cells expressing TGF-β (mononuclear cells) | Percentage of fibroblast cells which expressed MMP-3 [5, 8] | Percentage of fibroblast cells which expressed MMP-7 [5, 8] | Percentage of fibroblast cells which expressed MMP-9 [5, 8] | Percentage of fibroblast cells which expressed MMP-11 [5, 8] | Percentage of fibroblast cells which expressed MMP-13 [5, 8] | Percentage of fibroblast cells which expressed MMP-14 [5, 8] | Percentage of fibroblast cells which expressed SPARC [5, 8] | Percentage of fibroblast cells which expressed TGFα [5, 8] | Percentage of fibroblast cells which expressed TGFβ1 [5, 8] | Percentage of fibroblast cells which expressed TGFβ2 [5, 8] | Percentage of fibroblast cells which expressed TGFβ3 [5, 8] | Percentage of fibroblast cells which expressed MMP-3 [5, 9] | Percentage of fibroblast cells which expressed MMP-7 [5, 9] | Percentage of fibroblast cells which expressed MMP-9 [5, 9] | Percentage of fibroblast cells which expressed MMP-11 [5, 9] | Percentage of fibroblast cells which expressed MMP-13 [5, 9] | Percentage of fibroblast cells which expressed MMP-14 [5, 9] | Percentage of fibroblast cells which expressed SPARC [5, 9] | Percentage of fibroblast cells which expressed TGFα [5, 9] | Percentage of fibroblast cells which expressed TGFβ1 [5, 9] | Percentage of fibroblast cells which expressed TGFβ2 [5, 9] | Percentage of fibroblast cells which expressed TGFβ3 [5, 9] | Percentage of fibroblast cells which expressed MMP-3 [5, 10] | Percentage of fibroblast cells which expressed MMP-7 [5, 10] | Percentage of fibroblast cells which expressed MMP-9 [5, 10] | Percentage of fibroblast cells which expressed MMP-11 [5, 10] | Percentage of fibroblast cells which expressed MMP-13 [5, 10] | Percentage of fibroblast cells which expressed MMP-14 [5, 10] | Percentage of fibroblast cells which expressed SPARC [5, 10] | Percentage of fibroblast cells which expressed TGFα [5, 10] | Percentage of fibroblast cells which expressed TGFβ1 [5, 10] | Percentage of fibroblast cells which expressed TGFβ2 [5, 10] | Percentage of fibroblast cells which expressed TGFβ3 [5, 10] | Percentage of fibroblast cells which expressed MMP-3 [5, 11] | Percentage of fibroblast cells which expressed MMP-7 [5, 11] | Percentage of fibroblast cells which expressed MMP-9 [5, 11] | Percentage of fibroblast cells which expressed MMP-11 [5, 11] | Percentage of fibroblast cells which expressed MMP-13 [5, 11] | Percentage of fibroblast cells which expressed MMP-14 [5, 11] | Percentage of fibroblast cells which expressed SPARC [5, 11] | Percentage of fibroblast cells which expressed TGFα [5, 11] | Percentage of fibroblast cells which expressed TGFβ1 [5, 11] | Percentage of fibroblast cells which expressed TGFβ2 [5, 11] | Percentage of fibroblast cells which expressed TGFβ3 [5, 11] | Percentage of fibroblast cells which expressed MMP-3 [5, 12] | Percentage of fibroblast cells which expressed MMP-7 [5, 12] | Percentage of fibroblast cells which expressed MMP-9 [5, 12] | Percentage of fibroblast cells which expressed MMP-11 [5, 12] | Percentage of fibroblast cells which expressed MMP-13 [5, 12] | Percentage of fibroblast cells which expressed MMP-14 [5, 12] | Percentage of fibroblast cells which expressed SPARC [5, 12] | Percentage of fibroblast cells which expressed TGFα [5, 12] | Percentage of fibroblast cells which expressed TGFβ1 [5, 12] | Percentage of fibroblast cells which expressed TGFβ2 [5, 12] | Percentage of fibroblast cells which expressed TGFβ3 [5, 12] | PHF cells expressing MMP-3 [6] | PHF cells expressing MMP-7 [6] | PHF cells expressing MMP-9 [6] | PHF cells expressing MMP-11 [6] | PHF cells expressing MMP-13 [6] | PHF cells expressing MMP-14 [6] | PHF cells expressing SPARC [6] | PHF cells expressing TGF-α [6] | PHF cells expressing TGF-β1 [6] | PHF cells expressing TGF-β2 [6] | PHF cells expressing TGF-β3 [6] | PHF cells expressing MMP-3 [7] | PHF cells expressing MMP-7 [7] | PHF cells expressing MMP-9 [7] | PHF cells expressing MMP-11 [7] | PHF cells expressing MMP-13 [7] | PHF cells expressing MMP-14 [7] | PHF cells expressing SPARC [7] | PHF cells expressing TGF-α [7] | PHF cells expressing TGF-β1 [7] | PHF cells expressing TGF-β2 [7] | PHF cells expressing TGF-β3 [7]
